The values below come from article PMC6278281, “Rosmarinic Acid Derivatives’ Inhibition of Glycogen Synthase Kinase-3β Is the Pharmacological Basis of Kangen-Karyu in Alzheimer’s Disease” (Molecules, 2018).

Each structure is given as a SMILES string. Several values for one entry are separate records, joined by “and”; a condition that tells them apart may be missing. Identical values can stand only once. Like-named read-outs stand apart in the source and are kept apart here.

The target in series [1] is Glycogen synthase kinase 3β. To be noted: cited from earlier work; for Inhibition Mode / IC50: reference controls; for IC50: read-out: IC50, GSK-3β inhibition.
Series [2] concerns the target T1, human recombinant GSK-3β (Homo sapiens, UniProt P49841).
T1 construct: purchased ProSpec-Tany TechnoGene Ltd., Ness-Ziona, Israel
In words: GSK-3β enzyme inhibition assay (Kinase-Glo luminescent kinase assay). It counts as biochemical. The settings on record: pure compounds, mean ± SEM of triplicate experiments. Background: Kinase-Glo reads ATP consumption through a luciferase reaction.
Procedure: The enzymatic inhibition of GSK-3β in vitro was evaluated with human recombinant GSK-3β by using a Kinase-Glo reagent kit, according to Baki et al. [52] with a slight modification. The kinase reaction was performed in 384-well black plates. Test concentrations were prepared through serial dilution by using an assay buffer (pH 7.5) containing 50 mM HEPES, 1 mM EDTA, 1 mM EGTA, and 15 mM magnesium acetate. To initiate the reaction, 5 µL of sample, 5 µL of ATP (1 µM final concentration), 5 µL of 50 µM GSM, and 5 µL of 20 ng GSK-3β were mixed simultaneously in each well (the final DMSO concentration in the reaction mixture was less than 5%). Test samples were replaced by 5 µL of either buffer or luteolin to produce positive control (maximum activity) and negative control (total inhibition) samples. The reaction mixture was incubated at 37 °C for 30 min and was followed by the addition of the 20-µL Kinase-Glo reagent to stop the reaction. Glow-type luminescence was recorded after 10 min. The activity was proportional to the difference between total and consumed ATP. Inhibition activities were calculated on the basis of maximal activity, measured in the absence of the inhibitor, and the maximal inhibition was measured in the presence of the reference compound.

In a further series the test system is PC12 cells. The arrangement: method as in PMID 19101570. The settings on record: 20 µg/mL; cited from earlier work.
For the next series, the system named is BACE1. The arrangement: method as in PMID 29679864. To be noted: cited from earlier work.
Series [3] concerns the target T1, human recombinant GSK-3β. Put plainly: GSK-3β enzyme kinetics (Lineweaver–Burk and secondary plots, varying ATP or GSM substrate). To be noted: for Ki: from secondary plots; for Inhibition Mode: Lineweaver–Burk plots. It is filed as biochemical. How it is done:
The mode of GSK-3β enzyme inhibition by Sal B was characterized via kinetic study by using various concentrations of GSM substrate and ATP. Lineweaver–Burk plots showing reciprocal rates versus reciprocal GSM substrate/ATP concentrations (Figure 3) were deployed to explore the GSK-3β inhibition mechanism.
The GSK-3β enzyme kinetics was evaluated by using the assay method described in Section 4.4 with varying concentrations of ATP (2 µM, 1 µM, or 0.5 µM) or substrate (50 µM, 25 µM, or 12.5 µM). A Lineweaver–Burk plot was prepared by using double reciprocal plots of enzyme kinetic data. Ki values were calculated from the secondary plots.

On the set-up of series [4]: method as in PMID 15484228, PMID 16905282. To be noted: oral administration; cited from earlier work.
On the set-up of series [5]: method as in PMID 29027831. The settings on record: nasal administration in rats, cited from earlier work.
Series [6] concerns induced pluripotent stem cells (iPSCs). The arrangement: method as in PMID 29421539. To be noted: via the AKT/GSK-3β signaling pathway; cited from earlier work.
A further series concerns SH-SY5Y-APPsw cells. The arrangement: method as in PMID 27258307. To be noted: by modulating BACE1 activity; cited from earlier work.
Details of series [7]: method as in PMID 21903108. The settings on record: induced by scopolamine or Aβ25–35; cited from earlier work.
The mark [8] stands for this setting: read-out: IC50 (Mean ± SEM), GSK-3β inhibition.
[9] abbreviates: IC50 (Mean ± SEM), GSK-3β inhibition.

T1 sequence (P49841 whole entry): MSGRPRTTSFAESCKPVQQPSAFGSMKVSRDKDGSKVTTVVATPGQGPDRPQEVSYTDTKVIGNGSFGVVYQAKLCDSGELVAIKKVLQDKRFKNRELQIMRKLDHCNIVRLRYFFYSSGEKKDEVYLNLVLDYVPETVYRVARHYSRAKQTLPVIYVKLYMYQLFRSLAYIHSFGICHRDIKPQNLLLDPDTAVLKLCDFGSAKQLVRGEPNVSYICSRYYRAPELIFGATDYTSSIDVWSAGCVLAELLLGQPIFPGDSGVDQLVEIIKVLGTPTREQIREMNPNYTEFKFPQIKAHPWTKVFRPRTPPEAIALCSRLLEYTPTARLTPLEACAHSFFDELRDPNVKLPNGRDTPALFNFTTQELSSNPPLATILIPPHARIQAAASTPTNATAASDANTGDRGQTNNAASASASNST

Consider `COc1ccc(CNC(=O)Nc2ncc([N+](=O)[O-])s2)cc1` [AR-A014418], for which the Ki in series [1] (reference control) is 0.03 µM. In addition, in [1], the “Inhibition Mode” value was “ATP-competitive [30]” and the IC50 was 0.1 µM.
As to `O=C1Cc2c([nH]c3ccc([N+](=O)[O-])cc23)-c2ccccc2N1` [Alsterpaullone], in series [1], the “Inhibition Mode” value was “ATP-competitive [31]” and the IC50 is 0.004 µM.
Consider `O=C(O)/C=C/c1ccc(O)c(O)c1` [Caffeic acid], for which the IC50 at human recombinant GSK-3β [2] (setting [8]) amounted to 425 ± 7.61 µM. In addition, the “phosphorylation of GSK-3β and tau protein” value with PC12 cells was “decreases the phosphorylation of GSK-3β and tau protein”.
For the compound `O=C1Nc2ccccc2/C1=C1/Nc2ccccc2C1=O` [Indirubin], in [1], the “Inhibition Mode” value was “ATP-competitive [32]” and the IC50 is 0.6 µM.
For the compound `O=c1cc(-c2ccc(O)c(O)c2)oc2cc(O)cc(O)c12` [Luteolin, reference compound], the IC50 at human recombinant GSK-3β [2] (setting [9]) came to 2.18 ± 0.13 µM.
`O=C(/C=C/c1ccc(O)c2c1[C@H](C(=O)O[C@H](Cc1ccc(O)c(O)c1)C(=O)O)[C@@H](c1ccc(O)c(O)c1)O2)O[C@H](Cc1ccc(O)c(O)c1)C(=O)O` [Magnesium lithospermate B]: the IC50 on human recombinant GSK-3β [2] (setting [8]) was ~30 µM and 33.1 µM. Moreover, the BACE1 inhibitory activity result with BACE1 is “potent activity”.
On to `O=C(/C=C/c1ccc(O)c(O)c1)O[C@H](Cc1ccc(O)c(O)c1)C(=O)O` [Rosmarinic acid], for which, at human recombinant GSK-3β [2] (setting [8]), the IC50 amounted to 135 ± 4.69 µM. In the series with BACE1, the BACE1 inhibitory activity result was “potent activity”.
As for `O=C(/C=C/c1ccc(O)c(O)c1/C=C/c1ccc(O)c(O)c1)O[C@H](Cc1ccc(O)c(O)c1)C(=O)O` [Salvianolic acid A], the IC50 at human recombinant GSK-3β [2] (setting [8]) is ~30 µM and 30.2 µM. Moreover, the BACE1 inhibitory activity entry in the series on BACE1 is on record as “potent activity”.
`O=C(C=Cc1ccc(O)c2c1C(C(=O)OC(Cc1ccc(O)c(O)c1)C(=O)O)C(c1ccc(O)c(O)c1)O2)OC(Cc1ccc(O)c(O)c1)C(=O)O` (stereo not drawn) [Salvianolic acid B]: on human recombinant GSK-3β [2] (setting [9]), the IC50 was 6.97 ± 0.96 µM. In addition, the Ki came out at 5.44 µM at human recombinant GSK-3β [3] (ATP-competitive inhibition, constant GSM substrate (25 μM), varying ATP (0.5, 1, 2 μM)) and 6.32 µM on human recombinant GSK-3β [3] (muscle glycogen synthase (GSM)-competitive inhibition, constant ATP (1 μM), varying GSM substrate (12.5, 25, 50 μM)). The “Inhibition Mode” value at human recombinant GSK-3β [3] is “ATP-competitive”; at human recombinant GSK-3β [3] (listed as Sal B) it was “ATP-competitive and GSM substrate–competitive”. In series [4], the “time to maximum plasma concentration” value was 0.5 to 1 h. Also, in series [4], the “time traceable after administration” value was “up to 180 min”. Moreover, the brain-targeting efficacy in [5] (compared to intravenous and oral administration) was 5.54. Also, the bioavailability in series [5] was 43.98%. Further, the “proliferation and differentiation into neurons of iPSCs” value in series [6] is listed as “potently improved”. Further, in the series on SH-SY5Y-APPsw cells, the Aβ generation result is listed as “inhibited Aβ generation”. The cognitive impairments entry in [7] was “reverses cognitive impairments”.
In the case of `O=C(/C=C/c1ccc(O)c2oc(-c3ccc(O)c(O)c3)cc12)O[C@H](Cc1ccc(O)c(O)c1)C(=O)O` [Salvianolic acid C], at human recombinant GSK-3β [2] (setting [8]), the IC50 is ~30 µM and 31.8 µM. The BACE1 inhibitory activity entry in the series on BACE1 is on record as “potent activity”.

A word on the Ki: it is a dissociation constant, usually derived from enzyme kinetics or from competition with a known ligand. As usually defined, the IC50 is the concentration that inhibits the measured activity by half. Usually bioavailability stands for the share of a dose that reaches the circulation, judged against a reference dose that is usually intravenous.
